Key:
Ramos cells = assay: Cytotoxicity (cell death) in Ramos cells; type: cell-based; settings: Ramos cells
Protocol: (§1) The compounds listed in Table 9 were tested for activity against F1F0-ATPase by measuring ATP synthesis and ATP hydrolysis. In addition, the compounds were assessed for cytotoxicity in Ramos cells Inhibition of ATP synthesis and hydrolysis by the F1F0-ATPase and cytotoxicity in Ramos cells was measured as described in K. M. Johnson et al. Chemistry & Biology 2005, 12, 485-496.

F1F0-ATPase [1] = target: T1, F1F0-ATPase (Bos taurus, UniProt P13621); assay: Inhibition of ATP synthesis by the F1F0-ATPase; type: biochemical; settings: IC40: concentration for 40% inhibition
Protocol: as §1

F1F0-ATPase [2] = target: T1, F1F0-ATPase; assay: Inhibition of ATP hydrolysis by the F1F0-ATPase; type: biochemical; settings: IC40: concentration for 40% inhibition
Protocol: as §1

Compound | EC50 (Ramos cells) [µM] | ATP Synthesis (IC40 μM) (F1F0-ATPase [1]) [µM] | ATP Hydrolysis (IC40 μM) (F1F0-ATPase [2]) [µM]
Cc1cccc(NC(=NC(=O)c2cccc(Cl)c2)NCCc2c[nH]cn2)c1 [III-9, (Z/E)-N-((2-(1H-imidazol-4-yl)ethylamino)(m-toluidino)methylene)-3-chlorobenzamide] | > 30 | >10 | >20
Cc1ccc(NC(=NC(=O)c2cccc(Cl)c2)NCCc2c[nH]cn2)cc1 [III-10, (Z/E)-N-((2-(1H-imidazol-4-yl)ethylamino)(p-toluidino)methylene)-3-chlorobenzamide] | > 10 | >10 | >20
COc1ccccc1NC(=NC(=O)c1cccc(Cl)c1)NCCc1c[nH]cn1 [III-11, (Z/E)-N-((2-(1H-imidazol-4-yl)ethylamino)(2-methoxyphenylamino)methylene)-3-chlorobenzamide] | > 30 | >10 | >30
COc1cccc(NC(=NC(=O)c2cccc(Cl)c2)NCCc2c[nH]cn2)c1 [III-12, (Z/E)-N-((2-(1H-imidazol-4-yl)ethylamino)(3-methoxyphenylamino)methylene)-3-chlorobenzamide] | > 30 | >20 | >30
COc1ccc(NC(=NC(=O)c2cccc(Cl)c2)NCCc2c[nH]cn2)cc1 [III-13, (Z/E)-N-((2-(1H-imidazol-4-yl)ethylamino)(4-methoxyphenylamino)methylene)-3-chlorobenzamide] | > 30 | >10 | >30
O=C(N=C(NCCc1c[nH]cn1)Nc1ccccc1F)c1cccc(Cl)c1 [III-14, (Z/E)-N-((2-(1H-imidazol-4-yl)ethylamino)(2-fluorophenylamino)methylene)-3-chlorobenzamide] | > 30 | >20 | >30
O=C(N=C(NCCc1c[nH]cn1)Nc1cccc(F)c1)c1cccc(Cl)c1 [III-15, (Z/E)-N-((2-(1H-imidazol-4-yl)ethylamino)(3-fluorophenylamino)methylene)-3-chlorobenzamide] | > 30 | >20 | >30
O=C(N=C(NCCc1c[nH]cn1)Nc1ccc(F)cc1)c1cccc(Cl)c1 [III-16, (Z/E)-N-((2-(1H-imidazol-4-yl)ethylamino)(4-fluorophenylamino)methylene)-3-chlorobenzamide] | > 30 | >20 | >30
O=C(N=C(NCCc1c[nH]cn1)Nc1ccccc1Cl)c1cccc(Cl)c1 [III-17, (Z/E)-N-((2-(1H-imidazol-4-yl)ethylamino)(2-chlorophenylamino)methylene)-3-chlorobenzamide] | > 30 | >10 | >20
O=C(N=C(NCCc1c[nH]cn1)Nc1cccc(Cl)c1)c1cccc(Cl)c1 [III-18, (Z/E)-N-((2-(1H-imidazol-4-yl)ethylamino)(3-chlorophenylamino)methylene)-3-chlorobenzamide] | > 10 | >10 | >20
O=C(N=C(NCCc1c[nH]cn1)Nc1ccc(Cl)cc1)c1cccc(Cl)c1 [III-19, (Z/E)-N-((2-(1H-imidazol-4-yl)ethylamino)(4-chlorophenylamino)methylene)-3-chlorobenzamide] | > 10 | >10 | >30
O=C(N=C(NCCc1c[nH]cn1)Nc1ccc(Br)cc1)c1cccc(Cl)c1 [III-20, (Z/E)-N-((2-(1H-imidazol-4-yl)ethylamino)(4-bromophenylamino)methylene)-3-chlorobenzamide] | > 10 | >10 | >10
N#Cc1ccc(-c2ccc(NC(=NC(=O)c3cccc(Cl)c3)NCCc3c[nH]cn3)cc2)cc1 [III-21, (Z/E)-N-((2-(1H-imidazol-4-yl)ethylamino)(4′-cyanobiphenyl-4-ylamino)methylene)-3-chlorobenzamide] | < 10 | <10 | >30
O=C(N=C(NCCc1c[nH]cn1)Nc1ccccc1C(F)(F)F)c1cccc(Cl)c1 [III-23, (Z/E)-N-((2-(1H-imidazol-4-yl)ethylamino)(2-(trifluoromethyl)phenylamino)methylene)-3-chlorobenzamide] | > 20 | >20 | >20
O=C(N=C(NCCc1c[nH]cn1)Nc1cccc(C(F)(F)F)c1)c1cccc(Cl)c1 [III-24, (Z/E)-N-((2-(1H-imidazol-4-yl)ethylamino)(3-(trifluoromethyl)phenylamino)methylene)-3-chlorobenzamide] | > 10 | <10 | <10
O=C(N=C(NCCc1c[nH]cn1)Nc1ccc(C(F)(F)F)cc1)c1cccc(Cl)c1 [III-25, (Z/E)-N-((2-(1H-imidazol-4-yl)ethylamino)(4-(trifluoromethyl)phenylamino)methylene)-3-chlorobenzamide] | > 10 | >10 | <10
O=C(N=C(NCCc1c[nH]cn1)Nc1ccc2ccccc2c1)c1cccc(Cl)c1 [III-26, (Z/E)-N-((2-(1H-imidazol-4-yl)ethylamino)(naphthalen-2-ylamino)methylene)-3-chlorobenzamide] | > 10 | >10 | >10
O=C(N=C(NCCc1c[nH]cn1)Nc1cccc2ccccc12)c1cccc(Cl)c1 [III-27, (Z/E)-N-((2-(1H-imidazol-4-yl)ethylamino)(naphthalen-1-ylamino)methylene)-3-chlorobenzamide] | > 10 | <10 | >10
O=C(N=C(NCCc1c[nH]cn1)Nc1ccc(-c2ccc(Cl)cc2)cc1)c1cccc(Cl)c1 [III-29, (Z/E)-N-((2-(1H-imidazol-4-yl)ethylamino)(4′-chlorobiphenyl-4-ylamino)methylene)-3-chlorobenzamide] | < 10 | >10 | >10
Cc1cccc(-c2ccc(NC(=NC(=O)c3cccc(Cl)c3)NCCc3c[nH]cn3)cc2)c1 [III-31, (Z/E)-N-((2-(1H-imidazol-4-yl)ethylamino)(3′-methylbiphenyl-4-ylamino)methylene)-3-chlorobenzamide] | < 10 | >10 | >10
COc1cccc(-c2ccc(NC(=NC(=O)c3cccc(Cl)c3)NCCc3c[nH]cn3)cc2)c1 [III-34, (Z/E)-N-((2-(1H-imidazol-4-yl)ethylamino)(3′-methoxybiphenyl-4-ylamino)methylene)-3-chlorobenzamide] | < 10 | <10 | >10
COc1ccc(-c2ccc(NC(=NC(=O)c3cccc(Cl)c3)NCCc3c[nH]cn3)cc2)cc1 [III-35, (Z/E)-N-((2-(1H-imidazol-4-yl)ethylamino)(4′-methoxybiphenyl-4-ylamino)methylene)-3-chlorobenzamide] | < 10 | <10 | >10

— US8324258B2, “F1F0-ATPase inhibitors and related methods” (The Regents of the University of Michigan, priority 2007, dated 2012)
